The Biogen ADME set (Fang et al. 2023)
≈ marks a conversion by molar mass, not a printed value.

Conditions: for aqueous solubility: pH 6.8

Row | MDR1-MDCK efflux ratio | intrinsic clearance, human liver microsomes | intrinsic clearance, rat liver microsomes | aqueous solubility | fraction unbound, human plasma | fraction unbound, rat plasma | Compound
1 |  | ≤ 4.74 mL/min/kg | ≤ 10.7 mL/min/kg |  |  |  | O=C(CN1CCCC1=O)N1CCc2nc3sccc3c(=O)n2CC1
2 | 26.7 | ≤ 4.74 mL/min/kg | 286 mL/min/kg |  |  |  | O=C(CC[C@@H]1CCCN2CCCC[C@H]12)NCc1cnc2c(c1)CCC2
3 | 0.497 | 191 mL/min/kg | 2320 mL/min/kg | 15.5 µg/mL (≈ 50 µM) |  |  | COc1ccc(C)cc1NC(=O)CN1CCc2ccccc2C1
4 | 0.825 | ≤ 4.74 mL/min/kg | 196 mL/min/kg |  |  |  | CC1(C)[C@H]2CC=C(CN3CCC4(CCC(=O)N4)CC3)[C@@H]1C2
5 | 2.26 |  |  | 0.81 µg/mL (≈ 1.84 µM) |  |  | COc1ccccc1-n1cc2c(c1-c1ccccc1Br)c(=O)n(C)c(=O)n2C
6 | 1.01 | 41.9 mL/min/kg | 300 mL/min/kg | 44.7 µg/mL (≈ 140 µM) |  |  | O=C(CCc1ccc2c(c1)OCO2)Nc1cccc2cnccc12
7 | 33 | ≤ 4.74 mL/min/kg | 68.2 mL/min/kg | 35.9 µg/mL (≈ 81.9 µM) |  |  | N#CN1CCC[C@H](n2nc(-c3ccc(Oc4ccc(F)cc4F)cc3)c(C(N)=O)c2N)C1
8 | 18.2 | ≤ 4.74 mL/min/kg | 184 mL/min/kg |  |  |  | CN(CCNC(=O)NC1CCOCC1)C1CCCC1
9 | 13.9 | 23.4 mL/min/kg | 928 mL/min/kg | 42.1 µg/mL (≈ 127 µM) |  |  | CN1CCC(n2ncc3[nH]c(-c4ccc5ccccc5c4)nc32)CC1
10 | 1.71 | 25.2 mL/min/kg | 230 mL/min/kg | 42.5 µg/mL (≈ 141 µM) |  |  | Cn1cc(CCNC(=O)N2CCCc3c(F)cccc32)cn1

The next lines start with the compound.

Row | Compound | MDR1-MDCK efflux ratio | intrinsic clearance, human liver microsomes | intrinsic clearance, rat liver microsomes | aqueous solubility | fraction unbound, human plasma | fraction unbound, rat plasma
11 | CC(=O)NCCCOc1ccc(CN2C[C@H](Oc3cccc(C)c3)[C@@H](O)C2)cc1 | 31.2 | 12.1 mL/min/kg | 553 mL/min/kg | 44.9 µg/mL (≈ 113 µM) |  | 
12 | Cc1nn(C)c2ncc(C(=O)Nc3ccc4c(c3)CCO4)cc12 | 0.571 | 8.12 mL/min/kg | 48.2 mL/min/kg | 22.9 µg/mL (≈ 74.3 µM) |  | 
13 | O=C(Nc1ccc2c3c(cccc13)CC2)c1ccc(-n2cncn2)cc1 | 0.473 |  |  | 0.18 µg/mL (≈ 0.529 µM) |  | 
14 | CCOC(=O)Nc1ccc2c(c1)N(C(=O)CN(CC)CC)c1ccccc1CC2 | 21.7 | 44.9 mL/min/kg | 360 mL/min/kg | 86.4 µg/mL (≈ 218 µM) |  | 
15 | Fc1ccc(-c2nnc(CN3CCC(c4c[nH]c5ccccc45)CC3)o2)cc1 |  | 29.3 mL/min/kg | 230 mL/min/kg | 8 µg/mL (≈ 21.3 µM) |  | 
16 | COc1cccc(C)c1C(=O)N(C)CCCn1cccn1 | 3.55 | 38 mL/min/kg | 500 mL/min/kg |  |  | 
17 | N#Cc1cc(F)c(NS(=O)(=O)c2c[nH]c3cc(Cl)ccc23)cc1F | 2.57 | ≤ 4.74 mL/min/kg |  | 66.1 µg/mL (≈ 180 µM) | 0.0094 | 0.0056
18 | Cn1c(=O)cc(N2CCC[C@@H](N)C2)n(Cc2cc(F)ccc2C#N)c1=O |  | ≤ 4.74 mL/min/kg | ≤ 10.7 mL/min/kg |  |  | 
19 | Cn1c(-c2ccccc2)cnc1NCc1ccccc1 | 0.501 | 506 mL/min/kg | 3360 mL/min/kg | 27.7 µg/mL (≈ 105 µM) |  | 
20 | Cc1nc(N2CCN(C)CC2)nc(C)c1NC(=O)C1CCCCC1 | 3.54 | ≤ 4.74 mL/min/kg | ≤ 10.7 mL/min/kg | 60 µg/mL (≈ 181 µM) |  | 
21 | Cc1cnc(Cl)nc1-c1ccc(N(Cc2ccc(CNC(=O)C(F)F)cc2)C(=O)c2ccc(O)cc2O)cc1 | 54.7 | 41.3 mL/min/kg | 84.6 mL/min/kg | 27.6 µg/mL (≈ 49.8 µM) |  | 
22 | O=C(O)c1csc(Cc2ccc(Cl)cc2)n1 | 0.4 | ≤ 4.74 mL/min/kg | ≤ 10.7 mL/min/kg |  |  | 
23 | Cc1noc(NCc2ccc(F)cc2C)n1 | 0.589 | ≤ 4.74 mL/min/kg | 68.3 mL/min/kg |  |  | 
24 | O=C(NCCCn1ccnc1)N1CC2(CCCC2)c2ccccc21 |  | 68.9 mL/min/kg | 747 mL/min/kg | 63.1 µg/mL (≈ 194 µM) |  | 
25 | CC(C)Oc1cccc(C(C)NC(=O)c2ccnc(-n3cncn3)c2)c1 (stereo not given) | 1.81 | 70.8 mL/min/kg | 258 mL/min/kg |  |  | 
26 | c1nc(Nc2ccc3c(c2)OCCCO3)c2sccc2n1 |  | 92.1 mL/min/kg | 1570 mL/min/kg | 51 µg/mL (≈ 170 µM) |  | 
27 | Cc1ccc(F)c(-c2noc(N)c2C)c1 | 0.523 | 19.6 mL/min/kg | 293 mL/min/kg |  |  | 
